Square brackets hold non-standard residues; d marks the D form. Peptide text beside a SMILES is read from it. Ac6c = NC1(C(=O)O)CCCCC1
What was measured:
E. coli BW25113 ∆sbmA = type: cell-based, Escherichia coli; settings: 20 h, at least duplicates on two days, * once on two days, ** duplicate on one day; for Minimal Inhibitory Concentration, 25% MHB2, ∆sbmA: 25% MHB2, 37 °C; for Minimal Inhibitory Concentration, 33% TSB, ∆sbmA: 37 °C
Outline: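 Twofold peptide dilutions from 128 mg/L were made in 25% MHB2 or 33% TSB, with 4 h subcultured bacteria added to […]. After 20 h at 37 °C, OD595 was read; MIC is the lowest peptide concentration preventing visible growth.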

E. coli BW25113 = assay: Checkerboard assay (FICI); type: cell-based, Escherichia coli; settings: E. coli BW25113, 25% MHB2; synergy FICI ≤ 0.5, antagonism FICI ≥ 4; Table S6
Method: Synergy was tested in sterile 96-well plates (polystyrene F-bottom, Greiner Bio-One GmbH) using a total volume of 100 μL per well. […] Plates were incubated (37 °C, 20 h) and the optical density recorded at 595 nm using a microplate reader (Victor3, Perkin Elmer Inc., Waltham, MA, USA). The fractional inhibitory concentration index (FICI) was calculated by the equation FICI = […] = (A/MICA) + (B/MICB), where MICA/B are the MICs of an antimicrobial peptide (A) and one of the three tested antibiotics (B) alone and A and B are the MICs of combined antimicrobials. Synergy was defined as FICI ≤ 0.5, antagonism as FICI ≥ 4 and additive or indifference as FICI between 0.5 and 4.

E. coli 70S ribosome [1] = assay: Competitive fluorescence polarization assay against Cf-Api137 (Ki); type: binding; settings: Supplementary Figure S3; read-out: Ki as competitor of Cf-Api137
Method: (§1) Dissociation and inhibitory constants were determined in black 384-well-plates (Greiner Bio-One GmbH, Frickenhausen, Germany) blocked with 0.5% (w/v) casein in phosphate buffered saline (PBS, 8.8 mmol/L Na2HPO4×12 H2O, 1.2 mmol/L KH2PO4, 0.3 mol/L NaCl, pH 7.4) containing 0.05% (w/v) Tween® 20 (PBST) overnight at 4 °C and washed three times with PBST.
(§2) Ribosome solution was added (10 µmol/L) and the plate was incubated after centrifugation (2 min, 500× g, Rotor S2096, Allegra^TM 21R, Beckmann Coulter) at 28 °C for 90 min. Cf-labeled peptide was added (10 µL; final concentration of 20 nmol/L; final ribosome concentration of 0.5 µmol/L) and the plate was centrifuged and incubated again (90 min, 28 °C, dark). Fluorescence polarization was recorded (λex = 485 nm, λem = 535 nm) on a […]^TM microplate reader. Kd and IC50 values were calculated by fitting the data with a variable slope parameter [y = min + (max − min)/(1 + (x/Kd) ^−Hill slope) ] using SigmaPlot 13 (Systat Software Inc., San Jose, CA, USA). The obtained IC50 values were used to calculate the Ki values.

E. coli 70S ribosome [2] = assay: Competitive fluorescence polarization assay against Cf-Onc112 (Ki); type: binding; settings: Supplementary Figure S3; read-out: Ki as competitor of Cf-Onc112
Method: as §1, §2

E. coli 70S ribosome [3] = assay: Competitive fluorescence polarization assay against Cf-ARV-1502 (Ki); type: binding, E. coli BW25113; settings: 20 nmol/L Cf-ARV-1502, 0.5 µmol/L ribosome, 28 °C, 90 min + 90 min, Ki calculated from IC50; for Ki: read-out: Ki (nmol/L), competition with Cf-ARV-1502
Method: E. coli 70S ribosomes were prepared using a previously described protocol that was slightly modified. Briefly, E. coli BW25113 was cultivated in Luria-Bertani (LB) medium and cells were harvested after reaching an optical density of ~4 at 600 nm by centrifugation (5000× g, 15 min, 4 °C, Rotor JLA 8.100, Avanti J-20 XP, Beckmann Coulter, Krefeld, Germany). The cell pellets were frozen and stored at −80 °C. Cells were resuspended in ribosome buffer (2 mL/g cells; 20 mmol/L HEPES-KOH, 6 mmol/L MgCl2, 30 mmol/L NH4Cl, 4 mmol/L 2-mercaptoethanol, pH 7.6). Lysozyme (0.25 g/L cell suspension) was added, and the mixture was incubated on ice for 30 min. Cells were disrupted using the bead mill homogenizer FastPrep-24™ 5G (40 s, 4 m/s, 6 cycles, MP Biomedicals Germany GmbH, Eschwege, Germany) and zirconia/silica beads (0.1 mm diameter). The lysate was centrifuged (1500× g, 5 min, 4 °C, Rotor S4180, Allegra 21R, Beckmann Coulter) and the supernatant was incubated with DNase (5 U/mL) on ice for 60 min.
as §1
Ribosome solution was added (10 µmol/L) and the plate was incubated after centrifugation (2 min, 500× g, Rotor S2096, Allegra^TM 21R, Beckmann Coulter) at 28 °C for 90 min. Cf-labeled peptide was added (10 µL; final concentration of 20 nmol/L; final ribosome concentration of 0.5 µmol/L) and the plate was centrifuged and incubated again (90 min, 28 °C, dark). […] Kd and IC50 values were calculated by fitting the data with a variable slope parameter [y = min + (max − min)/(1 + (x/Kd) ^−Hill slope) ] using SigmaPlot 13 (Systat Software Inc., San Jose, CA, USA). The obtained IC50 values were used to calculate the Ki values.

Structure (SMILES)	Minimal Inhibitory Concentration, 25% MHB2, ∆sbmA (E. coli BW25113 ∆sbmA)	Minimal Inhibitory Concentration, 33% TSB, ∆sbmA (E. coli BW25113 ∆sbmA)	Checkerboard assay (FICI), peptide combined with chloramphenicol (E. coli BW25113)	Ki (E. coli 70S ribosome [1])	Ki (E. coli 70S ribosome [2])	Ki (E. coli 70S ribosome [3])	Ki (nmol/L), competition with Cf-ARV-1502 (E. coli 70S ribosome [3])
CC(C)C[C@H](NC(=O)[C@H](Cc1ccc(O)cc1)NC(=O)[C@@H]1CCCN1C(=O)[C@H](CCCNC(=N)N)NC(=O)[C@@H]1CCCN1C(=O)[C@H](CCCCN)NC(=O)[C@H](CC(=O)O)NC(=O)[C@@H]1CCCN1C(=O)[C@H](CCCNC(=N)N)NC(=O)C1(N)CCCCC1)C(=O)N1CCC[C@H]1C(=O)N[C@@H](CCCNC(=N)N)C(=O)N1CCC[C@H]1C(=O)N[C@@H](CCCNC(=N)N)C(=O)N1CCC[C@H]1C(=O)N1CCC[C@H]1C(=O)N[C@@H](CCCNC(=N)N)C(=O)N1CCC[C@H]1C(=O)N[C@H](C(=O)N[C@@H](CCCNC(=N)N)C(N)=O)C(C)C [ARV-1502] (H-[Ac6c]RPDKPRPYLPRPRPPRPVR-NH2)	16 to 32 µg/mL	64 µg/mL	did not indicate synergistic or antagonistic effects	3140 nM	120 nM	135 ± 10 nmol/L	
CC[C@H](C)[C@H](NC(=O)[C@@H](CCCNC(=N)N)NC(=O)[C@H](CCCNC(=N)N)NC(=O)[C@@H]1CCCN1C(=O)[C@@H]1CCCN1C(=O)[C@H](CCCNC(=N)N)NC(=O)[C@@H]1CCCN1C(=O)[C@H](CCCNC(=N)N)NC(=O)[C@@H]1CCCN1C(=O)[C@H](CC(C)C)NC(=O)[C@H](Cc1ccc(O)cc1)NC(=O)[C@@H]1CCCN1C(=O)[C@@H]1CCCN1C(=O)[C@H](CCCCN)NC(=O)[C@H](CC(=O)O)NC(=O)[C@@H](N)C(C)C)C(=O)N[C@@H](Cc1ccc(O)cc1)C(=O)N[C@@H](CC(N)=O)C(=O)N[C@H](CCCNC(=N)N)C(N)=O [Onc112, reference compound] (H-VDKPPYLPRPRPPR[dR]IYN[dR]-NH2; N-terminus and C-terminus assumed)	16 to 32 µg/mL	64 µg/mL				124 ± 2 nmol/L	
CC(C)C[C@H](NC(=O)[C@H](Cc1ccc(O)cc1)NC(=O)[C@@H]1CCCN1C(=O)[C@H](CCCNC(=N)N)NC(=O)[C@@H]1CCCN1C(=O)[C@H](CCCCN)NC(=O)[C@H](CCCCN)NC(=O)[C@@H]1CCCN1C(=O)[C@H](CCCNC(=N)N)NC(=O)C1(N)CCCCC1)C(=O)N1CCC[C@H]1C(=O)N[C@@H](CCCNC(=N)N)C(=O)N1CCC[C@H]1C(=O)N[C@@H](CCCNC(=N)N)C(=O)N1CCC[C@H]1C(=O)N1CCC[C@H]1C(=O)N[C@@H](CCCNC(=N)N)C(=O)N1CCC[C@H]1C(=O)N[C@H](C(=O)N[C@@H](CCCNC(=N)N)C(N)=O)C(C)C [Peptide 2] (H-[Ac6c]RPKKPRPYLPRPRPPRPVR-NH2; N-terminus and C-terminus assumed)			Slightly higher FICIs				did not alter the Ki value
